Reference: patent US20230150984A1, “NICOTINAMIDE MONONUCLEOTIDE AND NICOTINAMIDE RIBOSIDE DERIVATIVES AND USE THEREOF IN THE TREATMENT OF VIRAL INFECTIONS AND RESPIRATORY COMPLICATIONS, IN […] BY INFL[…] CORONAVIRUS” (NUVAMID SA, priority 2020, published 2023)
“Also recorded” adds a separate entry of the source.

What was measured:
[1] = system: Influenza virus H1N1 PR/8/34; assay: Murine influenza virus H1N1 PR/8/34 pulmonary infection, lethal dose (Example 2); assay type: in vivo, mice; settings: for body weight evolution D0 to D14 in comparison to vehicle / clinical score / clinical states of the mice D0 to D14: 500 PFU H1N1, I-A 185 mg/kg i.p., Tamiflu 1 mg/kg oral twice a day; for viral load in lung: 8 days after infection with 500 PFU of influenza A virus, vs vehicle group; for survival rate at D14: mice infected intranasally with 500 PFU H1N1 PR/8/34, Tamiflu 1 mg/kg oral gavage twice a day, D0-D14
[2] = system: H1N1; assay: NMN and NR on influenza virus pulmonary infection in mice (Example 7); assay type: in vivo; settings: H1N1 infected mice; for Remaining mice, Day 11 / Remaining mice, Day 14: 12 per group, loss of 25% or more bodyweight counted as dead; for Remaining mice, Day 11 / Remaining mice, Day 14 / survival rate at the end of the experiment: I-A or I-G 185 mg/kg i.p. daily, Tamiflu 2x1 mg/kg oral; for body weight loss in comparison to vehicle: I-A or I-G 185 mg/kg, Tamiflu 2 mg/kg, D0 to D14
Description: The compounds I-A and I-G were delivered by intraperitoneal route at 185 mg/kg daily during all the experiment. 72 mice were daily weighed to adapt the volume of compounds. Physiological buffer was used as control and was administrated by i.p once per day during all the experiment. Control animals were orally administrated with Tamiflu at 2 mg/kg during all the experiment. Each animal has been infected with H1N1. The experimental groups are as follows: • vehicle: H1N1 infection+physiological buffer • Tamiflu: H1N1 infection+Tamiflu (2×1 mg/kg) • Compound I-A: H1N1 infection+NMN (185 mg/kg) • Compound I-G: H1N1 infection+NR (185 mg/kg) • Tamiflu+Compound I-A: H1N1 infection+Tamiflu (2×1 mg/kg)+Compound I-A (185 mg/kg) • Tamiflu+Compound I-G: H1N1 infection+Tamiflu (2×1 mg/kg)+Compound I-G (185 mg/kg)
Survival rates, body weight and clinical scores were monitored during all the experiment.
Survival rates (FIG. 7): Animals which lost 25% or more bodyweight, were euthanized for ethical reasons and considered as dead. Survival rates were monitored during all the experiment. […]
Respiratory scoring (FIG. 10): the respiratory scoring was assessed according to the following criteria: […]

[3] = system: Influenza virus H1N1 PR/8/34 strain; assay: Compound I-A dose-response on influenza virus pulmonary infection (Example 8); assay type: in vivo, mice; settings: for Remaining mice, Day 10 / Remaining mice, Day 14: 500 PFU H1N1 PR/8/34, 12 mice; for viral load in lung: 8 days after infection with 500 PFU of influenza A virus
Description: The model consists in intranasal administration of 500 PFU of Influenza virus H1N1 PR/8/34 strain to induce pneumonia. Compound I-A was delivered by intraperitoneal (i.p.) route at 90, 185 or 500 mg/kg immediately after infection and then daily during all the experiment. Mice were daily weighed to adapt the volume of compounds. Physiological buffer was used as control and was administrated by i.p once per day during all the experiment. Each experimental group comprises 22 mice: 12 mice for the survival study, 5 mice of the flow cytometry analysis and 5 mice for the assessment of viral load.
The experimental groups are the following: • Group 1: Vehicle (i.p.) • Group 2: Compound I-A 90 mg/kg • Group 3: Compound I-A 185 mg/kg • Group 4: Compound I-A 500 mg/kg
At day 8, 5 mice per group are use to measure the following parameters. • Blood collection: 3 aliquots (a, b and c) a)+ac. perchlorique (NAD dosage) b) immune cell characterization (cytometry) c) remaining plasma->freezing • Lung and lymph nodes collection, cell preparation, counting and immune cell characterization (cytometry) • Remaining cells (if any) from the 2 tissues treated for RNAseq • Viral load in the lungs (5 mice per group)
Survival rates, body weight, clinical scores, viral load in lungs and quantification of subsets of immune population in lung, blood and draining lymph node at day 8 post-infection by flow cytometry were monitored during all the experiment.
Survival (FIG. 11): Animals which lost 25% or more bodyweight, were euthanized for ethical reasons and considered as dead. Survival rates were monitored during all the experiment. […]

[4] = I-A 90, 185 or 500 mg/kg i.p. daily

In the case of CCOC(=O)C1=C[C@@H](OC(CC)CC)[C@H](NC(C)=O)[C@@H](N)C1 [Tamiflu, oseltamivir, reference compound], the “body weight evolution D0 to D14 in comparison to vehicle” value [1] is reported as “slight improvement”, the “clinical score / clinical states of the mice D0 to D14” value [1] is reported as “significantly improved clinical states” and the “viral load in lung” value [1] is reported as “no impact”. The “survival rate at D14” value ([1]; I-A 185 mg/kg i.p. once a day) was 58%, the “Remaining mice, Day 11” value [2] was 8/12 and the “Remaining mice, Day 14” value [2] was 6/12. The “survival rate at the end of the experiment” value (from here on “survival rate at the end”) [2] was 50% and the “body weight loss in comparison to vehicle” value (“body weight loss” for short) [2] was “decrease the body weight loss”.

For NC(=O)c1ccc[n+]([C@@H]2O[C@H](COP(=O)(O)O)[C@@H](O)[C@H]2O)c1 [Compound I-A, Nicotinamide mononucleotide], the mice survival rate ([3]; I-A 90 mg/kg i.p. daily) was 33%, the “Remaining mice, Day 10” value ([3]; I-A 90 mg/kg i.p. daily) was 8/12 and the “Remaining mice, Day 14” value ([3]; I-A 90 mg/kg i.p. daily) was 4/12. The “viral load in lung” value ([3]; I-A 90 mg/kg) was “no significative impact”, the mice survival rate ([3]; I-A 185 mg/kg i.p. daily) was 58% and the “Remaining mice, Day 10” value ([3]; I-A 185 mg/kg i.p. daily) was 12/12. For the same molecule, the “Remaining mice, Day 14” value ([3]; I-A 185 mg/kg i.p. daily) was 7/12, the “viral load in lung” value ([3]; I-A 185 mg/kg) was “no significative impact” and the mice survival rate ([3]; I-A 500 mg/kg i.p. daily) was 75%. The “Remaining mice, Day 10” value ([3]; I-A 500 mg/kg i.p. daily) was 10/12, the “Remaining mice, Day 14” value ([3]; I-A 500 mg/kg i.p. daily) was 9/12 and the “viral load in lung (quantity of H1N1 particles)” value ([3]; I-A 500 mg/kg, 8 days after infection, in comparison to the vehicle group) was “significantly reduced the quantity of H1N1 particles”. The “body weight in comparison to vehicle (D3-D8)” value [3, 4] was “weak improvement”, the “clinical scores / clinical states of the mice compared to vehicle group” value [3, 4] was “improved clinical states” and the “modulation of the recruitment of monocyte derived macrophages” value ([3]; lung, day 8, flow cytometry) was “not observed”. The “number of CD11b+DC” value ([3]; lung, day 8, flow cytometry) was “tended to be reduced”, the “proportion of CD206+ macrophages” value ([3]; lung, day 8, flow cytometry) was “increased” and the “destruction of alveolar macrophages due to the infection” value ([3]; lung, day 8, flow cytometry, effect did not seem dose dependent) was “reduced”. For the same molecule, the “body weight evolution D0 to D14 in comparison to vehicle” value [1] was “slight improvement”, the “clinical score / clinical states of the mice D0 to D14” value [1] was “significantly improved clinical states” and the “viral load in lung” value [1] was “no impact”. For the same molecule, the “H1N1 induced lymphopenia in blood (T cells levels)” value ([1]; D8, cytometry on blood) was “reduced H1N1 induced lymphopenia”, the “recruitment of monocyte-derived macrophages and dendritic cells and CD8+ T cells in infected lungs” value ([1]; D8 post-inoculation, cytometry on lung) was “reduced the recruitment” and the circulating monocytes ([1]; D8 post-inoculation, in comparison to vehicle and oseltamivir-treated animals) was “decreased circulating monocytes”. For the same molecule, the “animal mortality / efficacy on survival” value ([1]; I-A 185 mg/kg i.p. once a day, compared to untreated control animals or oseltamivir, 185 mg/kg) was “reduce animal mortality; also recorded: more effective than oseltamivir”, the “survival rate at D14” value ([1]; I-A 185 mg/kg i.p. once a day) was 67% and the “Remaining mice, Day 11” value [2] was 7/12. The “Remaining mice, Day 14” value [2] was 7/12, the “survival rate at the end” value [2] was 58% and the “body weight loss” value [2] was “decrease the body weight loss”.

In the case of NC(=O)c1ccc[n+]([C@@H]2O[C@H](CO)[C@@H](O)[C@H]2O)c1 [Compound I-G, NICOTINAMIDE RIBOSIDE], the “Remaining mice, Day 11” value [2] is reported as 6/12, the “Remaining mice, Day 14” value [2] is reported as 6/12 and the “survival rate at the end” value [2] is reported as 50%. The “body weight loss” value [2] was “decrease the body weight loss”.
